US20220313677A1, “METHODS FOR TREATING LIVER DISORDERS USING FXR AGONISTS” (Novartis AG, priority 2016, published 2022)
Converted amounts (≈) assume the structure as drawn. “Also recorded” adds a separate entry of the source.

Tests used:
[1] = Single oral dose plasma pharmacokinetics in healthy subjects; type: in vivo, human; conditions: fasted, mean
[2] = Safety and tolerability in clinical study; type: in vivo, human
Text: Elevated ALT resolved to within normal levels within 14 days and without intervention.

[3] = Multiple oral dose plasma pharmacokinetics in healthy subjects
FGR5 = FGR5 effects
FGF15 = experiment: Serum FGF15 (MSD assay) in chronic treatment rat ANIT model; type: in vivo
Description: Serum FGF15 levels were quantified using an FGF15 Meso Scale Discovery (MSD) assay. Mouse FGF15 antibody from R&D Systems (AF6755) was used both as capture and detection antibody in the assay. MSD SULFO-TAG NHS-Ester was used to label the FGF15 antibody. MSD standard 96-well plates were coated with the FGF15 capture antibody and the plates were blocked with MSD Blocker A (R93AA-2). After washing the plate with PBS+0.05% Tween 20, MSD diluent 4 was dispensed into each well and incubated for 30 min. 25 μl of calibrator dilutions or samples (serum or EDTA plasma) were dispensed into each well and incubated with shaking at RT. After washing, detection antibody was added and incubated with shaking for 1 h at RT. After washing and the addition of MSD Read buffer (R92TC-2), the plate was read on an MSD SECTOR Imager 6000. Plots of the standard curve and unknown samples were calculated using MSD data analysis software.
Activation of FXR in the ileum induces the expression of fibroblast growth factor 15 (FGF15 in rodent; FGF19 in human), a hormone that is secreted in the portal blood and signals to the liver to repress Cyp7a1 expression synergistically with SHP. The direct FXR-dependent induction of FGF15/19 along with FGF15/19's anti-cholestatic properties makes it a convenient serum biomarker for detecting target engagement of FXR agonists.

[4] = test system: rat ANIT-induced cholestasis model; experiment: PK/PD modeling of effective exposure in rat ANIT model; type: in vivo; conditions: for IC80 (total bilirubin): 2-week rat ANIT chronic treatment model, serum total bilirubin, Inhibitory effect Imax model
Description: (§1) Male Wistar rats were treated with ANIT (0.1% ANIT in chow diet) for 2 weeks. […] The serum samples were collected on day 14 for analysis of biomarkers of hepatobiliary injury (including ALT, AST, bilirubin and bile acids). The PK samples (pre-dose, 0.5, 1, 3, 7, 10 and 24 h, n=3/dose group) were taken on day 13 (at steady-state).
The mean biomarker data were compared to the PK data (average concentration at each dose) for the modeling. The IC80 was determined using the Inhibitory effect Imax model (effect C=0 at Imax, C=infinity at E0) built in Phoenix WinNonlin 6.3 software. […] Therefore, we chose to use a mean of the IC80 for the four biomarkers (total bilirubin, total bile acids, ALT and AST) as the IC80 for efficacy in this model. From these studies, the IC80 of LJN452 was 0.127 ng/ml and the corresponding AUCO-24h was 3.05 ng*h/ml (Table 1), and the corresponding efficacious dose is approximately 0.01 mg/kg (based on Table 1 and Table 2).
The PK samples (pre-dose, 0.5, 1, 3, 7, 10 and 24 h, n=3/dose group) were taken on day 13 (at steady-state). AUCO-24h was determined using Phoenix WinNonlin 6.3 software and the average concentrations were calculated from mean of AUCO-24h at each dose (divided the AUCO-24h by 24 h). The individual biomarker data were compared to the PK data (average concentration at each dose) for the modeling. Since the lowest dose (0.01 mg/kg) already approached maximal efficacy, the IC80 was chosen as the measurement of the efficacious exposure (Table 1). The IC80 was determined using the Inhibitory effect Imax model (effect C=0 at Imax, C=infinity at E0) built in Phoenix WinNonlin 6.3 software.

[5] = Estimation of human efficacious dose from rat efficacious exposure and human PK; type: in vivo; conditions: human, plasma, oral; at dose of ~6 μg; read-out: Cmax at estimated human efficacious dose
Description: The human efficacy dose was calculated based on the efficacious exposure in the rat ANIT-induced disease model. Since the in vitro potency and protein binding between human and rat were similar, the EC80 exposure in human was assumed to be the same as that in rat (3.05 ng*h/mL).

[6] = test system: rat ANIT-induced cholestasis model; experiment: Chronic treatment rat ANIT model: serum markers of cholestasis and liver damage; type: in vivo; conditions: 14 days oral dosing; AST, ALT, bilirubin, bile acids in serum
Description: Rats were treated with alpha-naphthyl-isothiocyanate (ANIT) (0.1% w/w) in food for 3 days prior to treatment with the compound at the indicated doses or with vehicle control (“Veh”). A non-cholestatic control group was fed standard chow diet without ANIT, and serve as the non-cholestatic control animals (“Control”). After 14 days of oral dosing, the indicated analyte was measured in serum. LLQ, lower limit of quantitation. Mean±SEM; n=5.
as §1

[7] = clinical studies; cited from earlier work
[8] = exposures for doses 10-100 μg normalized to 10 μg
[9] = maximal drug effect, rat ANIT model

## O=C(O)c1cc(F)c2nc(N3C4CC[C@H]3CC(OCc3c(-c5ccccc5OC(F)(F)F)noc3C3CC3)C4)sc2c1 (stereo partly drawn) [Compound A, 2-[(1R,3r,5S)-3-({5-cyclopropyl-3-[2-(trifluoromethoxy)phenyl]-1,2-oxazol-4-yl}methoxy)-8-azabicyclo[3.2.1]octan-8-yl]-4-fluoro-1,3-benzothiazole-6-carboxylic acid]
[1]; single dose 10 μg
  AUCinf: 3.39 ng·h/mL
  AUClast: 2.79 ng·h/mL
  Cmax: 0.186 ng/mL
  T½: 14.9 h
[1]; single dose 30 μg
  AUCinf: 13.4 ng·h/mL
  AUClast: 12.7 ng·h/mL
  Cmax: 0.627 ng/mL
  T½: 13.7 h
[1]; single dose 100 μg
  AUCinf: 37.9 ng·h/mL
  AUClast: 34.8 ng·h/mL
  Cmax: 1.73 ng/mL
  T½: 13.5 h
[1]; single dose 300 μg
  AUCinf: 123 ng·h/mL
  AUClast: 119 ng·h/mL
  Cmax: 6.41 ng/mL
  T½: 15.3 h
[1]; single dose 1000 μg
  AUCinf: 482 ng·h/mL
  AUClast: 416 ng·h/mL
  Cmax: 22.1 ng/mL
  T½: 21.9 h
[1]; single dose 3000 μg
  AUCinf: 933 ng·h/mL
  AUClast: 888 ng·h/mL
  Cmax: 54.2 ng/mL
  T½: 16.5 h
[2]; 100 μg repeated daily
  ALP or bilirubin elevation: no elevation
[2]; clinical study
  findings in physical exam, vital signs or ECGs: No significant findings
[2]; doses up to and including 60 μg
  tolerability in repeated daily administration: well tolerated
[3]; [8]
  average AUCtau at day 13 for a dose level of 10 μg: 4.84 ng·h/mL
  average Cmax at day 13 for a dose level of 10 μg: 0.32 ng/mL
[3]; once daily dosing, dose range 10 μg to 100 μg
  dose proportionality of exposure (Cmax and AUC): approximately dose-proportional increase; also recorded: approximately dose proportional increase
[3]; once daily oral dosing, trough levels
  time by which steady-state was reached: ≤ 4 days
FGR5
  FGR5 effects: no FGR5 effects
FGF15
  serum FGF15: stimulated serum FGF15 expression; also recorded: Significant dose-dependent induction
FGF19; 30 μg/day
  FGF19 elevations: consistent with pharmacological activity in NASH
FGF19; single dose studies 10 μg to 1 mg
  FGF19 dose dependence: Dose-dependent increases
[4]
  IC80 (total bilirubin): 0.223 ng/mL (≈ 0.369 nM)
[4]; listed as LJN452
  IC80 (total bilirubin): 8.223 ng/mL (≈ 13.6 nM)
[4]; [9]
  Imax (ALT): 84.2 U/L
  Imax (AST): 140.3 U/L
  Imax (total bile acids): 125.5 µmol/L
  Imax (total bilirubin): 2.0 mg/dL
[5]
  Cmax: ~0.2 ng/mL
[6]
  dose from which hepatobiliary injury indicators improved: ≥ 0.01 mg/kg

## CC[C@H]1[C@@H](O)[C@@H]2[C@H](CC[C@]3(C)[C@@H]([C@H](C)CCC(=O)O)CC[C@@H]23)[C@@]2(C)CC[C@@H](O)C[C@@H]12 [OCA, 6α-ethyl-chenodeoxycholic acid]
[7]
  pruritus: increased pruritus
